Columns and labels:
Format in all cases: biochemical
JAK1 = JAK1 (Homo sapiens (Human), UniProt P23458); experiment: JAK enzymatic assay (peptide mobility shift), JAK1; settings: recombinant JAK1 20 nM, IRS-1 peptide, 240 minutes
Procedure: (§1) Recombinant JAK1 (Catalog Number PV4775), JAK2 (Catalog Number PV4210) and JAK3 (Catalog Number PV3855) were purchased from (Invitrogen Corporation, Madison, Wis.). […] Adenosine 5′-triphosphate (ATP) was obtained from (Sigma Chemical Company, St. Louis, Mo.). […] Coating Reagent 3 was purchased from (Caliper Life Sciences, Hopkinton, Mass.).
(§2) Compounds were diluted serially in 100% dimethyl sulfoxide and tested in an 11 point dose response in duplicate or quadruplicate (200 nl of compound/DMSO was added per 10 L reaction). […] The assay was run for 240 minutes for JAK1, 150 minutes for JAK2, 90 minutes for JAK3 and 70 minutes for Tyk2. […] The plates were placed on a LabChip 3000 (LC3000) instrument from (Caliper Life Sciences) to measure the formation of phosphorylated peptide. Data was analyzed using Hits Well Analyzer Software from (Caliper Life Sciences) to obtain the amount of product formed.
(§3) Data was then imported into an internal application where each data point is expressed as % inhibition based on uninhibited and no enzyme controls. Dose-response data is then fit using a 4 parameter logistic equation (Equation 1) to determine an IC50.

JAK3 = JAK3 (Homo sapiens (Human), UniProt P52333); experiment: JAK enzymatic assay (peptide mobility shift), JAK3; settings: recombinant JAK3 1 nM, JAKtide peptide, 90 minutes
Chain of JAK3 (P52333 781-1124): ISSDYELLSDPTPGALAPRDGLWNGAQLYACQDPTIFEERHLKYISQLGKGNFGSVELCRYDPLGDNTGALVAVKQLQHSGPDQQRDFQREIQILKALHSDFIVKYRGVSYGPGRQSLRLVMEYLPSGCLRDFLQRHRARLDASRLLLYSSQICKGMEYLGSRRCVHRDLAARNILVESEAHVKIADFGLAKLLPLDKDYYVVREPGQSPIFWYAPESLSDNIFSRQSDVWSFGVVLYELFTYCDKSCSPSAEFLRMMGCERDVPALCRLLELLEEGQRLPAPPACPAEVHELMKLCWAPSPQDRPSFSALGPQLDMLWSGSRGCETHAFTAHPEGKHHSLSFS
Procedure: as §1, §2, §3

JAK2 = JAK2 (Homo sapiens (Human), UniProt O60674); experiment: JAK enzymatic assay (peptide mobility shift), JAK2; settings: recombinant JAK2 2 nM, JAKtide peptide, 150 minutes
Chain of JAK2 (O60674 808-1132): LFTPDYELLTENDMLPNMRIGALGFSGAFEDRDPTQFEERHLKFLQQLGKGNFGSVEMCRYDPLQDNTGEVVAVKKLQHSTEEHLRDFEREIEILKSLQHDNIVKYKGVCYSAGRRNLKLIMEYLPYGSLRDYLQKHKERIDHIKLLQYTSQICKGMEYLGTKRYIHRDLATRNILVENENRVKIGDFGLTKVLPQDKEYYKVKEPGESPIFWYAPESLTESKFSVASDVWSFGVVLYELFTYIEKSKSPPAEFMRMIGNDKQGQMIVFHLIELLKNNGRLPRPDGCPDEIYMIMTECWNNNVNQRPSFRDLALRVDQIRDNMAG
From the text: Recombinant JAK1 (Catalog Number PV4775), JAK2 (Catalog Number PV4210) and JAK3 (Catalog Number PV3855) were purchased from (Invitrogen Corporation, Madison, Wis.). Tyk2 (His-Tyk2 (888-1182, C936S, C1142S)) used in this study was expressed and purified at Pfizer Laboratories. Adenosine 5′-triphosphate (ATP) was obtained from (Sigma Chemical Company, St. Louis, Mo.). […] Coating Reagent 3 was purchased from (Caliper Life Sciences, Hopkinton, Mass.).
A peptide mobility shift assay was used to quantify the phosphorylation of the JAKtide (JAK2 and JAK3) or the IRS-1 peptide (JAK1 and Tyk2). Reactions were carried out in a 384-well plate (Matrical MP-101) in a 10 L total volume. […] Compounds were diluted serially in 100% dimethyl sulfoxide and tested in an 11 point dose response in duplicate or quadruplicate (200 nl of compound/DMSO was added per 10 L reaction). The reactions were initiated by the addition of enzyme to the final concentration of 2 nM JAK2, 1 nM JAK3, 12 nM Tyk2 or 20 nM JAK1. The assay was run for 240 minutes for JAK1, 150 minutes for JAK2, 90 minutes for JAK3 and 70 minutes for Tyk2. The assays were stopped at the specified times with 20 uL of 140 mM HEPES, 22.5 mM EDTA and 0.15% Coating Reagent 3. The plates were placed on a LabChip 3000 (LC3000) instrument from (Caliper Life Sciences) to measure the formation of phosphorylated peptide. Data was analyzed using Hits Well Analyzer Software from (Caliper Life Sciences) to obtain the amount of product formed.
as §3

Chain of JAK1 (P23458 whole entry): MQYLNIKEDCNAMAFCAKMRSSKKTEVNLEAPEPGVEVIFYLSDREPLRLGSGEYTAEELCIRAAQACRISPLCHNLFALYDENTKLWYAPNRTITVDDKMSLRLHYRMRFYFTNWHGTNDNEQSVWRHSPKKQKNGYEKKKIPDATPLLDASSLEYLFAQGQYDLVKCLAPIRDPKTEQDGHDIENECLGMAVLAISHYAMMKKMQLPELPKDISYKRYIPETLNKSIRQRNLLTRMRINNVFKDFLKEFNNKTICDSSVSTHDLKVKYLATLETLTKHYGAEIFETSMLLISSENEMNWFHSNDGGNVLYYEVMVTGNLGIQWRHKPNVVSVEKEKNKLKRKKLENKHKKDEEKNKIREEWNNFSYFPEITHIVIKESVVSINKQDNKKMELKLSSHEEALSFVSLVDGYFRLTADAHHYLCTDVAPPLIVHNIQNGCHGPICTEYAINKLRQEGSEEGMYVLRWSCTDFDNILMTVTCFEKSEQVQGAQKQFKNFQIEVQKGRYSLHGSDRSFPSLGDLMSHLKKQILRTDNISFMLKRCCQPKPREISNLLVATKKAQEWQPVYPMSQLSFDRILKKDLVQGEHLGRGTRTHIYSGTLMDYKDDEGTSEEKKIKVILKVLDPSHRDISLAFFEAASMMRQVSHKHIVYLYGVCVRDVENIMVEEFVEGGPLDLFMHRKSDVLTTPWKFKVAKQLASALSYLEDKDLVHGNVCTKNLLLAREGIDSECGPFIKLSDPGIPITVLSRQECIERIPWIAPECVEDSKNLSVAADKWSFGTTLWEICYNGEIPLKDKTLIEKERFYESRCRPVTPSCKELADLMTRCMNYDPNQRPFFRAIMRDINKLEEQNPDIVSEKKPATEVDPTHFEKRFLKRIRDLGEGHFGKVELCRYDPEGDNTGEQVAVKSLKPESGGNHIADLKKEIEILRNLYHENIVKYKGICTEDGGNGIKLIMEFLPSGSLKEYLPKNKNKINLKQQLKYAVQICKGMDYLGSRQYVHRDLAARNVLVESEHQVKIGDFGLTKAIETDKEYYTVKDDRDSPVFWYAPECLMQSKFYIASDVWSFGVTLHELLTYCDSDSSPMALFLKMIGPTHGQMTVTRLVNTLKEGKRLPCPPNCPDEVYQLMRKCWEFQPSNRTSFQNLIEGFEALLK

| IC50 (JAK1) [nM] | IC50 (JAK3) [nM] | IC50 (JAK2) [nM] | SMILES |
| --- | --- | --- | --- |
| 10.7 | 298 | 49.9 | CN(c1ncnc2[nH]ccc12)[C@H]1CC[C@H](CS(=O)(=O)N2CC(S(=O)(=O)CC3CC3)C2)CC1 [Example 116, N-{trans-4-[({3-[(cyclopropylmethyl)-sulfonyl]azetidin-1-yl}sulfonyl)methyl]cyclo-hexyl}-N-methyl-7H-pyrrolo[2,3-d]pyrimidin-4-amine] |
| 1.2 | 31.7 | 4.09 | CCOC1CCCN(S(=O)(=O)CC2CCC(N(C)c3ncnc4[nH]ccc34)CC2)C1 (stereo not drawn) [Example 3, N-(trans-4-{[(3-ethoxypiperidin-1-yl)sulfonyl]methyl}cyclo-hexyl)-N-methyl-7H-pyrrolo[2,3-d]pyrimidin-4-amine] |
| 5.35 | 123 | 18.7 | CN(c1ncnc2[nH]ccc12)[C@H]1CC[C@H](CS(=O)(=O)N2C[C@@H](O)[C@H](C#N)C2)CC1 [Example 36, (3S,4S)-4-hydroxy-1-[({trans-4-[methyl(7H-pyrrolo[2,3-d]pyrimidin-4-yl)amino]cyclohexyl}methyl)-sulfonyl]pyrrolidine-3-carbonitrile] |
| 1.66 | 190 | 15.2 | CC(=O)NCC1CCCN(S(=O)(=O)C[C@H]2CC[C@H](N(C)c3ncnc4[nH]ccc34)CC2)C1 (stereo partly drawn) [Example 20, N-({1-[({trans-4-[methyl-(7H-pyrrolo[2,3-d]-pyrimidin-4-yl)amino]-cyclohexyl}methyl)sulfonyl]-piperidin-3-yl}methyl)-acetamide] |
| 6.99 | 275 | 32 | CN(c1ncnc2[nH]ccc12)[C@H]1CC[C@H](CS(=O)(=O)N2CC[C@@H](O)[C@@H](O)C2)CC1 [Example 13, (3S,4R)-1-[({trans-4-[methyl(7H-pyrrolo[2,3-d]pyrimidin-4-yl)amino]-cyclohexyl}methyl)sulfonyl]-piperidine-3,4-diol] |
| 13.8 | 275 | 34.3 | CN(c1ncnc2[nH]ccc12)[C@H]1CC[C@H](CS(=O)(=O)N2C[C@@H](F)[C@H](F)C2)CC1 [Example 78, N-[trans-4-({[(3R,4R)-3,4-difluoropyrrolidin-1-yl]sulfonyl}methyl)cyclo-hexyl]-N-methyl-7H-pyrrolo[2,3-d]pyrimidin-4-amine] |
| 3.03 | 205 | 18.5 | C[C@H]1CN(S(=O)(=O)C[C@H]2CC[C@H](N(C)c3ncnc4[nH]ccc34)CC2)C[C@@H]1CO [Example 80, {(3R,4R)-4-methyl-1-[({trans-4-[methyl(7H-pyrrolo[2,3-d]pyrimidin-4-yl)amino]cyclohexyl}-methyl)sulfonyl]pyrrolidin-3-yl}methanol] |
| 7.35 | 217 | 16.7 | CN(c1ncnc2[nH]ccc12)[C@H]1CC[C@H](CS(=O)(=O)N2CC[C@@H](F)C2)CC1 [Example 34, N-[trans-4-({[(3R)-3-fluoropyrrolidin-1-yl]sulfonyl}methyl)cyclo-hexyl]-N-methyl-7H-pyrrolo-[2,3-d]pyrimidin-4-amine] |
| 0.00199 | 0.198 | 0.0165 | C[C@H]1CN(S(=O)(=O)C[C@H]2CC[C@H](N(C)c3ncnc4[nH]ccc34)CC2)C[C@@H]1CO [Example 135, {(3r,4r)-4-methyl-1-[({trans-4-[methyl(7H-pyrrolo[2,3-d]pyrimidin-4-yl)amino]cyclohexyl}methyl)sulfonyl]pyrrolidin-3-yl}methanol] |

Second part, the compound before the results:

| SMILES | IC50 (JAK1) [nM] | IC50 (JAK3) [nM] | IC50 (JAK2) [nM] |
| --- | --- | --- | --- |
| Cc1cc(CC[C@]2(O)CCN(S(=O)(=O)C[C@H]3CC[C@H](N(C)c4ncnc5[nH]ccc45)CC3)C2)on1 [Example 85, 3-[2-(3-methylisoxazol-5-yl)ethyl]-1-[({trans-4-[methyl(7H-pyrrolo[2,3-d]-pyrimidin-4-yl)amino]-cyclohexyl}methyl)sulfonyl] pyrrolidin-3-ol] | 10.5 | 286 | 46.2 |
| COC[C@H]1CCCN1S(=O)(=O)C[C@H]1CC[C@H](N(C)c2ncnc3[nH]ccc23)CC1 [Example 69, N-[trans-4-({[(2R)-2-(methoxymethyl)pyrrolidin-1-yl]sulfonyl}methyl)-cyclohexyl]-N-methyl-7H-pyrrolo[2,3-d]pyrimidin-4-amine] | 9.55 | 370 | 56.2 |
| C[C@@H]1C[C@@H](CS(=O)(=O)N2CCC[C@H](O)C2)CC[C@@H]1N(C)c1ncnc2[nH]ccc12 [Example 131, (3S)-1-[({(1S,3R,4S)-3-methyl-4-[methyl(7H-pyrrolo[2,3-d]pyrimidin-4-yl)amino]cyclohexyl}methyl)-sulfonyl]piperidin-3-ol] | 5.28 | 32.5 | 12 |
| CCc1ccc(COC[C@H]2CCN(S(=O)(=O)C[C@H]3CC[C@H](N(C)c4ncnc5[nH]ccc45)CC3)C2)nc1 [Example 94, N-(trans-4-{[(3-{[(5-ethylpyridin-2-yl)methoxy]-methyl}pyrrolidin-1-yl)-sulfonyl]methyl}-cyclohexyl)-N-methyl-7H-pyrrolo[2,3-d]pyrimidin-4-amine] | 17.5 | 678 | 63.6 |
| Cc1cccc(N2CCN(S(=O)(=O)C[C@H]3CC[C@H](N(C)c4ncnc5[nH]ccc45)CC3)CC2)n1 [Example 119, N-methyl-N-[trans-4-({[4-(6-methylpyridin-2-yl)piperazin-1-yl]sulfonyl}-methyl)cyclohexyl]-7H-pyrrolo[2,3-d]pyrimidin-4-amine] | 6.48 | 88.9 | 13.7 |
| CN(c1ncnc2[nH]ccc12)[C@H]1CC[C@H](CS(=O)(=O)N2CCC(c3nc(CS(C)(=O)=O)no3)CC2)CC1 [Example 50, N-methyl-N-(trans-4-{[(4-{3-[(methylsulfonyl)-methyl]-1,2,4-oxadiazol-5-yl}piperidin-1-yl)sulfonyl]-methyl)cyclohexyl)-7H-pyrrolo[2,3-d]pyrimidin-4-amine] | 8.33 | 581 | 65.8 |
| CCOP(=O)(OCC)O[C@@H]1CCCN(S(=O)(=O)C[C@H]2CC[C@H](N(C)c3ncnc4[nH]ccc34)CC2)C1 [Example 140, Diethyl (3R)-1-[({trans-4-[methyl(7H-pyrrolo[2,3-d]pyrimidin-4-yl)amino]cyclohexyl}methyl)sulfonyl]piperidin-3-yl phosphate] | 0.0235 | 1.8 | 0.116 |
| CN(c1ncnc2[nH]ccc12)[C@H]1CC[C@H](CS(=O)(=O)N2CC[C@@](O)(Cn3cccn3)C2)CC1 [Example 90, 1-[({trans-4-[methyl(7H-pyrrolo[2,3-d]pyrimidin-4-yl)amino]cyclohexyl}methyl)-sulfonyl]-3-(1H-pyrazol-1-ylmethyl)pyrrolidin-3-ol] | 1.8 | 82.3 | 9.3 |
| CN(c1ncnc2[nH]ccc12)[C@H]1CC[C@H](CS(=O)(=O)N2CCCC(C(F)(F)F)C2)CC1 (stereo partly drawn) [Example 6, N-methyl-N-[trans-4-({[3-(trifluoromethyl)piperidin-1-yl]sulfonyl}methyl)-cyclohexyl]-7H-pyrrolo[2,3-d]pyrimidin-4-amine] | 7.25 | 604 | 54.3 |
| COCCOC1CCCN(S(=O)(=O)C[C@H]2CC[C@H](N(C)c3ncnc4[nH]ccc34)CC2)C1 (stereo partly drawn) [Example 139, N-[trans-4-({[3-(2-methoxyethoxy)piperidin-1-yl]sulfonyl}methyl)cyclohexyl]-N-methyl-7H-pyrrolo[2,3-d]pyrimidin-4-amine] | 0.00125 | 0.0368 | 0.00405 |
| Cc1ccc(CC2CCN(S(=O)(=O)C[C@H]3CC[C@H](N(C)c4ncnc5[nH]ccc45)CC3)CC2)nn1 [Example 48, N-methyl-N-{trans-4-[({4-[(6-methylpyridazin-3-yl)methyl]piperidin-1-yl}sulfonyl)methyl]cyclo-hexyl}-7H-pyrrolo[2,3-d]-pyrimidin-4-amine] | 22.7 | 753 | 84.9 |

Reference: US8633206B2, “Pyrrolo[2,3-D]pyrimidine compounds” (Pfizer Inc., priority 2009, dated 2014)
